Values quoted from earlier work as cited in patent publication EP4796125A1, “TREATMENT OF PATIENT WITH NEGATIVE P53 GENE MUTATION, POSITIVE KRAS GENE MUTATION AND POSITIVE BRCA MUTATION” (Ascentawits Pharmaceuticals, Ltd., priority 2023, dated 2025).

Test system: cell lines and mouse tumor models of KRAS pathogenic mutations
Settings: in vitro and in vivo pharmacodynamic experiments; data of WO2023046060A1; cited from earlier work

C[C@H](OP(=O)(N1CC1)N1CC1)c1ccc([N+](=O)[O-])c(Oc2cccc(C(=O)N(C)C)c2)c1 [AST-3424]
sensitivity of cell lines and mouse tumor models of KRAS pathogenic mutations: more sensitive
